Laboratory results published in patent publication US20100286188A1, “MEANS FOR IMPROVING COGNITIVE FUNCTIONS AND MEMORY BASED ON HYDROGENATED PYRIDO(4,3-B)INDOLES (VARIANTS), PHARMACOLOGICAL MEANS BASED THEREON AND METHOD FOR THE USE THEREOF” (priority 2006, published 2010).

Columns and labels:
[1] = tested on: healthy, mature C57BL/6 male mice; assay: Object location memory test (recognition of the new location of a known object); assay type: in vivo; conditions: for dose with maximally expressed stimulating/activating effect on memory: mice, intragastric
Excerpt: Method. In order to study the action of substances on the memory of animals in which there had been no prior destruction of neurons, we used the test of recognition of the new location of a known object (“Object location memory test”, B. Kolb, K. Buhrmann, R. McDonald and R. Sutherland, Cereb. Cortex, 6 (1994), pp 664-680; D. Gaffan, Eur. J. Neurosci., 4 (1992), pp. 381-388; T. Steckler, W. H. I. M. Drinkenburgh, A. Sahgal and J. P. Aggleton, Prog. Neurobiol., 54 (1998), pp. 289-311). This Object Recognition Test is used to study memory. It provides a reliable, easy-to-use assessment tool for analyzing the effects of test compounds on memory in animals. The test can be applied to normal healthy animals (controls), as well as to animals that are models of various neurodegenerative diseases.
Experiments were performed on healthy, mature C57BL/6 male mice aged 3-5 months and weighing 20-24 g. Male mice were used to exclude any possible negative effects resulting from hormonal changes associated with […] in female mice. The animals were kept in a vivarium with 5 to a cage in 12/12 hours light regime with light from 08.00 to 20.00 and free access to water and food. The observation chamber was made from white opaque organic glass and measured 48×38×30 cm. Brown glass vials with a diameter of 2.7 cm and a height of 5.5 cm were used as the test objects. 2-3 minutes before introducing an animal, the chamber and test objects were rubbed with 85% alcohol. The animals were always placed in the centre of the chamber.
Dimebon was dissolved in distilled water and administered intragastrically 1 hour before training in a volume of 0.05 ml per 10 g of animal weight. A corresponding volume of solvent was administered to control animals.
On the first day, the mice were brought into the test room and acclimatized for 20-30 minutes. After this, each animal was placed for 10 min. in an empty behavior chamber, which had been pretreated with alcohol, for familiarization. The animal was then replaced in the cage and taken to the vivarium.
On the following day, the same mice were brought into the test room, acclimatized for 20-30 min. and then given dimebon solution intragastrically. One hour after administration of the substance, an animal was placed in the behavior chamber, on the bottom of which two identical objects for recognition (glass vials) were placed on a diagonal at a distance of 14.5 cm from the corners. The training time for each animal was 20 min. After 20 min. it was replaced in the cage and returned to the vivarium.
Testing was performed 48 hours after training. For this purpose, after acclimatization an animal was placed for 1 min. in the chamber for refamiliarization. After a minute it was removed and one object was placed on the bottom of the chamber in a location known to the animal, and the other in a new location. The time spent investigating each object separately over a period of 10 min. was recorded with an accuracy of 0.1 s using two electronic stopwatches. The behavior of the animals was observed through a mirror. Purposeful approach of an animal's nose towards an object at a distance of 2 cm or direct touching of an object with the nose was regarded as a positive investigative reaction.
Since significant variations in object investigation time between animals are observed in this test, we calculated the percent investigation time for each mouse using the formula tNl/(tKl+tNl)×100. The total time spent on investigation of the two objects was taken as 100%. The results were further processed using the Student t-test method.

mice [2] = assay: Acute toxicity on intragastric administration; assay type: in vivo; conditions: intragastric administration
Experimental: (§1) Investigation of the acute toxicity of Memantine® established that the death of the animals is observed after its intragastric administration in a dose of 300 mg/kg. The LD50 for mice on intragastric administration of Nootropil® (piracetam) is 8000 mg/kg.

rats with a model of AD = conditions: cholinergic neurons damaged by chronic AF64A; cited from earlier work
AD patients = conditions: 20 mg three times daily; cited from earlier work
[3] = Acute toxicity on intragastric administration; assay type: in vivo; conditions: mouse, in vivo, po
Experimental: as §1

mice [4] = conditions: intragastric administration, source not stated; cited from earlier work
[5] = cited from earlier work
[6] = dose 2.5 mg/kg, testing 48 hours after training
[7] = dose 0.01 mg/kg intragastrically 1 hour before training, testing 48 hours after training
[8] = dose 0.1 mg/kg intragastrically, testing 48 hours after training

| SMILES | percent of time on investigation of the object in a known location [1, 6] [%] | percent of time on investigation of the object in a new location [1, 6] [%] | dose with maximally expressed stimulating/activating effect on memory [1] [mg/kg] | dose at which death of the animals is observed (mice [2]) [mg/kg] | stimulating effect on memory, times more active than Nootropil (piracetam) ([1]; compared with literature doses of Nootropil) | memory-enhancing activity relative to Memantine (times higher) ([1]; comparing doses with essentially the same effect (0.01 vs 2.5 mg/kg)) [times] | memory-enhancing activity relative to Memantine (times higher) ([1]; comparing maximally effective doses (0.1 vs 2.5 mg/kg)) [times] | percent of time on investigation of the object in the known location [1, 7] [%] | percent of time on investigation of the object in the new location [1, 7] [%] | percent of time on investigation of the object in the known location [1, 8] [%] | percent of time on investigation of the object in the new location [1, 8] [%] | activating effect on memory ([1]; dose increased to 0.25 mg/kg) | stimulating effect on memory, times more active than Memantine ([1]; overall conclusion) | results in active avoidance conditioned reflex experiment versus control animals (rats with a model of AD) | condition of AD patients (memory and cognitive functions) (AD patients) | LD50 [3] [mg/kg] | LD50 (mice [4]) [mg/kg] | doses with stimulating effect on learning and memory ([5]; active and passive avoidance conditioned response tests, depending on the test) [mg/kg] | maximally effective dose that stimulated learning and memory ([5]; data from the literature) [mg/kg] |
| --- | --- | --- | --- | --- | --- | --- | --- | --- | --- | --- | --- | --- | --- | --- | --- | --- | --- | --- | --- |
| CC12CC3CC(C)(C1)CC(N)(C3)C2 [Memantine®, reference compound] | 40.6±6.9 | 59.4±6.9 | 2.5 | 300 | – | – | – | – | – | – | – | – | – | – | – | – | – | – | – |
| Cc1ccc2c(c1)c1c(n2CCc2ccc(C)nc2)CCN(C)C1 [dimebon, 2,8-dimethyl-5-[2-(6-methyl-3-pyridyl)ethyl]-2,3,4,5-tetrahydro-1H-pyrido[4,3-b]indole] | – | – | 0.1 | – | 2000-5000 times | 250 | 25 | 42.5±4.8 | 57.5±4.8 | 37.6 | 62.4±6.5 | activating effect on memory disappears | 25-250 times | significantly better results | improvement in the condition of AD patients | > 1000 | – | – | – |
| NC(=O)CN1CCCC1=O [Nootropil® (piracetam), piracetam] | – | – | – | – | – | – | – | – | – | – | – | – | – | – | – | – | 8000 | 200 to 500 | 200 to 500 |
